For 13 compounds, EC50, CC50 and IC50 results are on record in patent US20220363686A1 (AiCuris GmbH & Co. KG, priority 2018, published 2022).

Series [1] has as its system HBV. The series can be described thus: Determination of HBV DNA from the supernatants of HepAD38 cells (anti-HBV activity). It counts as cell-based, hepatitis B virus. Conditions: Hepatitis B virus, HePAD38, 144 h, HBV DNA in HepAD38 supernatant, day 6, qPCR; read-out: Cell Activity. The procedure: The anti-HBV activity was analysed in the stable transfected cell line HepAD38, which has been described to secrete high levels of HBV virion particles (Ladner et al., 1997). In brief, HepAD38 cells were cultured at 37° C. at 5% CO2 and 95% humidity in 200 μl maintenance medium, which was Dulbecco's modified Eagle's medium/Nutrient Mixture F-12 (Gibco, Karlsruhe), 10% fetal bovine serum (PAN Biotech Aidenbach) supplemented with 50 μg/ml penicillin/streptomycin (Gibco, Karlsruhe), 2 mM L-glutamine (PAN Biotech, Aidenbach), 400 μg/ml G418 (AppliChem, Darmstadt) and 0.3 μg/ml tetracycline. Cells were subcultured once a week in a 1:5 ratio, but were usually not passaged more than ten times. For the assay 60,000 cells were seeded in maintenance medium without any tetracycline into each well of a 96-well plate and treated with serial half-log dilutions of test compound. To minimize edge effects the outer 36 wells of the plate were not used but were filled with assay medium. On each assay plate six wells for the virus control (untreated HepAD38 cells) and six wells for the cell control (HepAD38 cells treated with 0.3 μg/ml tetracycline) were allocated, respectively. In addition, one plate set with reference inhibitors like BAY 41-4109, entecavir, and lamivudine instead of screening compounds were prepared in each experiment. In general, experiments were performed thrice in triplicates. At day 6 HBV DNA from 100 μl filtrated cell culture supernatant (AcroPrep Advance 96 Filter Plate, […] Supor membran, PALL GmbH, Dreieich) was automatically purified on the MagNa Pure LC instrument using the MagNA Pure 96 DNA and Viral NA Small Volume Kit (Roche Diagnostics, Mannheim) according to the instructions of the manufacturer. EC50 values were calculated from relative copy numbers of HBV DNA In brief, 5 μl of the 100 μl eluate containing HBV DNA were subjected to PCR LC480 Probes Master Kit (Roche) together with 1 μM antisense primer […], 0.5 μM sense primer […], 0.3 μM hybprobes […]-FL and LC640-[…]-PH (TIBMolBiol, Berlin) to a final volume of 12.5 μl. The PCR was performed on the Light Cycler 480 real time system (Roche Diagnostics, Mannheim) using the following protocol: Pre-incubation for 1 min at 95° C., amplification: 40 cycles×(10 sec at 95° C., 50 sec at 60° C., 1 sec at 70° C.), cooling for 10 sec at 40° C. Viral load was quantitated against known standards using HBV plasmid DNA of pCH-9/3091 (Nassal et al., 1990, Cell 63: 1357-1363) and the LightCycler 480 SW 1.5 software (Roche Diagnostics, Mannheim) and ECso values were calculated using non-linear regression with GraphPad Prism 6 (GraphPad Software Inc., La Jolla, USA).
(In general: In qPCR the cycle at which signal appears reflects the starting amount.)

The nature of series [2]: Cell viability assay (AlamarBlue). The settings on record: human, HepAD38 cells. A general note: The colour change of resazurin is a common sign of viable cells or microbes.
Series [3] deals with HBV core protein (C-terminal truncated core protein containing 149 amino acids of the N-terminal assembly domain) (UniProt P03146). The series is described as follows: Biochemical capsid assembly assay (fluorescence quenching). On the set-up: rows headed: Assembly Activity; other: BODIPY-FL labelled core protein, assembly started with NaCl, read after 6 min. Conditions: read-out: Assembly Activity; BODIPY-FL labelled core protein, assembly started with NaCl, read after 6 min. As for the experimental part:
The screening for assembly effector activity was done based on a fluorescence quenching assay published by Zotnick et al. (2007). The C-terminal truncated core protein containing 149 amino acids of the N-terminal assembly domain fused to a unique cysteine residue at position 150 and was expressed in E. coli using the pET expression system (Merck Chemicals, Darmstadt). Purification of core dimer protein was performed using a sequence of size exclusion chromatography steps. In brief, the cell pellet from 1 L BL21 (DE3) Rosetta2 culture expressing the coding sequence of core protein cloned NdeI/XhoI into expression plasmid pET21b was treated for 1 h on ice with a native lysis buffer (Qproteome Bacterial Protein Prep Kit; Qiagen, Hilden). After a centrifugation step the supernatant was precipitated during 2 h stirring on ice with 0.23 g/ml of solid ammonium sulfate. Following further centrifugation the resulting pellet was resolved in buffer A (100 mM Tris, pH 7.5; 100 mM NaCl; 2 mM DTT) and was subsequently loaded onto a buffer A equilibrated CaptoCore 700 column (GE HealthCare, Frankfurt). The column flow through containing the assembled HBV capsid was dialyzed against buffer N (50 mM NaHCO3 pH 9.6; 5 mM DTT) before urea was added to a final concentration of 3M to dissociate the capsid into core dimers for 1.5 h on ice. The protein solution was then loaded onto a IL Sephacryl S300 column. After elution with buffer N core dimer containing fractions were identified by SDS-PAGE and subsequently pooled and dialyzed against 50 mM HEPES pH 7.5; 5 mM DTT. To improve the assembly capacity of the purified core dimers a second round of assembly and disassembly starting with the addition of 5 M NaCl and including the size exclusion chromatography steps described above was performed. From the last chromatography step core dimer containing fractions were pooled and stored in aliquots at concentrations between 1.5 to 2.0 mg/ml at −80° C.
Immediately before labelling the core protein was reduced by adding freshly prepared DTT in a final concentration of 20 mM. After 40 min incubation on ice storage buffer and DTT was removed using a Sephadex G-25 column (GE HealthCare, Frankfurt) and 50 mM HEPES, pH 7.5. For labelling 1.6 mg/ml core protein was incubated at 4° C. and darkness overnight with BODIPY-FL maleimide (Invitrogen, Karlsruhe) in a final concentration of 1 mM. After labelling the free dye was removed by an additional desalting step using a Sephadex G-25 column. Labelled core dimers were stored in aliquots at 4° C. In the dimeric state the fluorescence signal of the labelled core protein is high and is quenched during the assembly of the core dimers to high molecular capsid structures. The screening assay was performed in black 384 well microtiter plates in a total assay volume of 10 μl using 50 mM HEPES pH 7.5 and 1.0 to 2.0 μM labelled core protein. Each screening compound was added in 8 different concentrations using a 0.5 log-unit serial dilution starting at a final concentration of 100 μM, 31.6 μM or 10 μM, In any case the DMSO concentration over the entire microtiter plate was 0.5%. The assembly reaction was started by the injection of NaCl to a final concentration of […] which induces the assembly process to approximately 25% of the maximal quenched signal. 6 min after starting the reaction the fluorescence signal was measured using a Clariostar plate reader (BMG Labtech, Ortenberg) with an excitation of 477 nm and an emission of 525 nm. As 100% and 0% assembly control HEPES buffer containing 2.5 M and 0 M NaCl was used. Experiments were performed thrice in triplicates. EC50 values were calculated by non-linear regression analysis using the Graph Pad Prism 6 software (GraphPad Software, La Jolla, USA).

Molecules are shown by their SMILES.

HBV core protein (C-terminal truncated core protein containing 149 amino acids of the N-terminal assembly domain), sequence (P03146 whole entry, the tested form may be a part): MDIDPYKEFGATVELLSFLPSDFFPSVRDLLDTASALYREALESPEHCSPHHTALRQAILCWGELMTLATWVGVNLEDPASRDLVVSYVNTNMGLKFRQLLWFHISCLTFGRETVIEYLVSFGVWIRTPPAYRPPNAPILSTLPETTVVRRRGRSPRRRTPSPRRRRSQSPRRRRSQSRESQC

Consider `COCC1(N(C)C(=O)c2cnn3c2CN(C(=O)c2cc4c(F)cc(F)cc4[nH]2)CC3)CC1` [Example 8, 5-(4,6-difluoro-1H-indole-2-carbonyl)-N-[1-(methoxymethyl)cyclopropyl]-N-methyl-4H,5H,6H,7H-pyrazolo[1,5-a]pyrazine-3-carboxamide], for which, in series [1], the EC50 was under 1 µM. The same compound had a CC50 at 6 days in series [2] of over 10 µM. The IC50 in series [3] is under 5 µM.
The like results for `COCC1(N(C)C(=O)c2cnn3c2CN(C(=O)c2cc4ccccc4[nH]2)CC3)CC1` [Example 9, 5-(1H-indole-2-carbonyl)-N-[1-(methoxymethyl)cyclopropyl]-N-methyl-4H,5H,6H,7H-pyrazolo[1,5-a]pyrazine-3-carboxamide] were, in that order, under 1 µM, over 10 µM and under 5 µM.
The like results for `COCC1(CNC(=O)c2cnn3c2CN(C(=O)c2cc4ccccc4[nH]2)CC3)CC1` [Example 10, 5-(1H-indole-2-carbonyl)-N-{[1-(methoxymethyl)cyclopropyl]methyl}-4H,5H,6H,7H-pyrazolo[1,5-a]pyrazine-3-carboxamide] were, in that order, 1 to 10 µM, over 10 µM and 5 to 10 µM.
In the case of `CC(C)OCC1(N(C)C(=O)c2cnn3c2CN(C(=O)c2cc4ccccc4[nH]2)CC3)CC1` [Example 11, 5-(1H-indole-2-carbonyl)-N-methyl-N-{1-[(propan-2-yloxy)methyl]cyclopropyl}-4H,5H,6H,7H-pyrazolo[1,5-a]pyrazine-3-carboxamide], the EC50 in series [1] was under 1 µM. This compound also showed a CC50 at 6 days in series [2] of over 10 µM. In series [3], the IC50 was under 5 µM.
For `CCOCC1(N(C)C(=O)c2cnn3c2CN(C(=O)c2cc4ccccc4[nH]2)CC3)CC1` [Example 12, N-[1-(ethoxymethyl)cyclopropyl]-5-(1H-indole-2-carbonyl)-N-methyl-4H,5H,6H,7H-pyrazolo[1,5-a]pyrazine-3-carboxamide] the same measures were under 1 µM, over 10 µM and under 5 µM.
With `CN(C(=O)c1cnn2c1CN(C(=O)c1cc3c(Cl)cccc3[nH]1)CC2)C1(CO)CC1` [Example 13, 5-(4-chloro-1H-indole-2-carbonyl)-N-[1-(hydroxymethyl)cyclopropyl]-N-methyl-4H,5H,6H,7H-pyrazolo[1,5-a]pyrazine-3-carboxamide], the EC50 in series [1] is under 1 µM. The same compound returned a CC50 at 6 days in series [2] of over 10 µM. Moreover, the IC50 in series [3] was under 5 µM.
For `CCc1cc(F)cc2[nH]c(C(=O)N3CCn4ncc(C(=O)N(C)C5(CO)CC5)c4C3)cc12` [Example 14, 5-(4-ethyl-6-fluoro-1H-indole-2-carbonyl)-N-[1-(hydroxymethyl)cyclopropyl]-N-methyl-4H,5H,6H,7H-pyrazolo[1,5-a]pyrazine-3-carboxamide] the same measures were under 1 µM, over 10 µM and under 5 µM.
With `CN(C(=O)c1cnn2c1CN(C(=O)c1cc3ccccc3[nH]1)CC2)C1(CO)CC1` [Example 15, N-[1-(hydroxymethyl)cyclopropyl]-5-(1H-indole-2-carbonyl)-N-methyl-4H,5H,6H,7H-pyrazolo[1,5-a]pyrazine-3-carboxamide], the EC50 in series [1] is under 1 µM. This compound yielded a CC50 at 6 days in series [2] of over 10 µM. Also, the IC50 in series [3] was under 5 µM.
For `CN(C(=O)c1cnn2c1CN(C(=O)c1cc3ccccc3[nH]1)CC2)C1(COC(F)F)CC1` [Example 16, N-{1-[(difluoromethoxy)methyl]cyclopropyl}-5-(1H-indole-2-carbonyl)-N-methyl-4H,5H,6H,7H-pyrazolo[1,5-a]pyrazine-3-carboxamide] the same measures were under 1 µM, over 10 µM and under 5 µM.
Take `O=C(c1cc2ccccc2[nH]1)N1CCn2ncc(C(=O)N3CC(F)(F)CC34CC4)c2C1` [Example 19, 2-(3-{6,6-difluoro-4-azaspiro[2.4]heptane-4-carbonyl}-4H,5H,6H,7H-pyrazolo[1,5-a]pyrazine-5-carbonyl)-1H-indole]: in series [1], the EC50 is under 1 µM. Besides, in series [2], the CC50 at 6 days was over 10 µM. In addition, the IC50 in series [3] was under 5 µM.
The like results for `CC1Cn2ncc(C(=O)N(C)C3(COC(F)F)CC3)c2CN1C(=O)c1cc2ccccc2[nH]1` (stereo not drawn) [Example 20, N-{1-[(difluoromethoxy)methyl]cyclopropyl}-5-(1H-indole-2-carbonyl)-N,6-dimethyl-4H,5H,6H,7H-pyrazolo[1,5-a]pyrazine-3-carboxamide] were, in that order, under 1 µM, over 10 µM and under 5 µM.
The like results for `CN(C(=O)c1cnn2c1CN(C(=O)c1cc3c(F)c(F)ccc3[nH]1)CC2)C1(COC(F)F)CC1` [Example 21, 5-(4,5-difluoro-1H-indole-2-carbonyl)-N-{1-[(difluoromethoxy)methyl]cyclopropyl}-N-methyl-4H,5H,6H,7H-pyrazolo[1,5-a]pyrazine-3-carboxamide] were, in that order, under 1 µM, over 10 µM and under 5 µM.
Consider `CCc1cc(F)cc2[nH]c(C(=O)N3CCn4ncc(C(=O)N(C)C5(COC(F)F)CC5)c4C3)cc12` [Example 22, N-{1-[(difluoromethoxy)methyl]cyclopropyl}-5-(4-ethyl-6-fluoro-1H-indole-2-carbonyl)-N-methyl-4H,5H,6H,7H-pyrazolo[1,5-a]pyrazine-3-carboxamide], for which, in series [1], the EC50 is under 1 µM. In series [2], the CC50 at 6 days was over 10 µM. In addition, the IC50 in series [3] was under 5 µM.

One may read the CC50 as the concentration that lowers cell viability or growth by half.
